These compounds were tested on human kidney carcinoma cell line A498 (assay: Cell proliferation assay (WST-1), A498). Details: A498 cells, 48 hours treatment.
Assay type: cell-based
Description: A498 cells were purchased from German Collection of Microorganisms and Cell Cultures, Germany. RC-124 cell line was purchased from CLS, Germany. Minimum Essential Medium (MEM), McCoy's 5a and Dulbecco's Modified Eagle's Medium (DMEM) were purchased from PAA, Austria. Fetal calf serum was purchased from Invitrogen, Germany. Non-essential amino acids and sodium pyruvate were purchased from Sigma-Aldrich, Germany.
The human kidney carcinoma cell line A498 was cultured in Minimum Essential Medium (MEM, with Earl's salts). The African green monkey cell line BSC-1 and the human embryonic kidney cell line HEK293 were maintained in Dulbecco's Modified Eagle's Medium (DMEM). The human kidney cell line RC-124 was cultured in McCoy's 5a medium. All media were supplemented with 10% fetal calf serum and penicillin and streptomycin. The cells were maintained at 37° C. in a 5% CO2 humidified atmosphere. Cells were discarded after 20 passages.
Cell proliferation was determined as a function of the metabolic activity by means of the cell proliferation reagent WST-1 (Roche, Mannheim Germany). 4000 cells were seeded in quadruplicates into the wells of 96 well plates and were allowed to attach for 24 hours prior to treatment with different compound concentrations for 48 hours. All samples contained 0.1% DMSO. After the treatment, the WST-1 reagent was added to the cells according to the manufacturer's protocol. The absorbance was measured with the Inifinite® M200 plate reader (Tecan, Austria) at 450/690 nm. Mean values (n=4) were used to generate dose-response curves by fitting to a four-parameter IC50 equation. The IC50 values for each compound were calculated with the software GraFit 5.0.
The following IC50 values were obtained for the human kidney carcinoma cell line A498. Very similar IC50 values were obtained for the African green monkey cell line BSC-1, the human embryonic kidney cell line HEK293 and the human kidney cell line RC-124.
`CC(C)C12C[C@@H](OC(=O)CO)[C@@](C)(O1)[C@@H]1CC[C@@H](C)[C@H]1[C@@H]2OC(=O)/C=C/c1c(F)cccc1Cl` [Compound 24] was tested, and the IC50 was 30 to 100 nM.
For `CC(C)C12C[C@@H](OC(=O)CO)[C@@](C)(O1)[C@@H]1CC[C@@H](C)[C@H]1[C@@H]2OC(=O)/C=C/c1ccc(Cl)cc1` [Compound 19], the IC50 was 500 to 5000 nM.
`C#CC[C@@H](O)C(=O)O[C@@H]1CC2(C(C)C)O[C@@]1(C)[C@@H]1CC[C@@H](C)[C@H]1C2OC(=O)c1ccc2c(c1)CCCC2` (stereo partly drawn) [Compound 56] gave an IC50 of 500 to 5000 nM.
`CC(C)C12C[C@@H](OC(=O)[C@@H](C)O)[C@@](C)(O1)[C@@H]1CC[C@@H](C)[C@H]1C2OC(=O)/C=C/c1ccccc1` (stereo partly drawn) [Compound 53] was tested, and the IC50 was 100 to 500 nM.
For `CC(C)C12C[C@@H](OC(=O)CO)[C@@](C)(O1)[C@@H]1CC[C@@H](C)[C@H]1[C@@H]2OC(=O)c1ccc(Cl)c(Cl)c1` [Compound 31], the IC50 was 100 to 500 nM.
For `CC(C)[C@@]12C[C@@H](OC(=O)CO)C(C)(O1)[C@@H]1CC[C@@H](C)[C@H]1[C@@H]2OC(=O)C1CCC2CCCCC2C1` (stereo partly drawn) [Compound 38], the IC50 was 30 to 100 nM.
For `CC(C)C12C[C@@H](OC(=O)[C@@H](C)O)[C@@](C)(O1)[C@@H]1CC[C@@H](C)[C@H]1C2OC(=O)c1ccc2ccccc2c1` (stereo partly drawn) [Compound 55], the IC50 was 30 to 100 nM.
`C/C(=C\c1ccccc1)C(=O)O[C@H]1[C@@H]2[C@H](C)CC[C@H]2[C@]2(C)OC1(C(C)C)C[C@H]2OC(=O)CO` [Compound 26] showed an IC50 of 500 to 5000 nM.
With `CC(C)[C@@]12C[C@@H](OC(=O)CO)C(C)(O1)[C@@H]1CC[C@@H](C)[C@H]1[C@@H]2OC(=O)c1ccc2c(c1)CCCC2` [Compound 36] the IC50 was < 30 nM.
In the case of `C/C(=C\C(=O)O[C@H]1[C@@H]2[C@H](C)CC[C@H]2[C@]2(C)OC1(C(C)C)C[C@H]2OC(=O)CO)c1ccccc1` [Compound 17], the IC50 is reported as < 30 nM.
Work on `CC(C)C12C[C@@H](OC(=O)CO)[C@@](C)(O1)[C@@H]1CC[C@@H](C)[C@H]1[C@@H]2OC(=O)c1ccc(Cl)cc1` [Compound 29] yielded an IC50 of 500 to 5000 nM.
`CC(C)C12C[C@@H](OC(=O)CO)[C@@](C)(O1)[C@@H]1CC[C@@H](C)[C@H]1[C@@H]2OC(=O)/C=C/c1ccc2c(c1)OCO2` [Compound 23] gave an IC50 of 500 to 5000 nM.
`CC(C)C12C[C@@H](OC(=O)CO)[C@@](C)(O1)[C@@H]1CC[C@@H](C)[C@H]1[C@@H]2OC(=O)c1ccc([N+](=O)[O-])cc1` [Compound 30] was tested, and the IC50 was 500 to 5000 nM.
`COCC(=O)O[C@@H]1C[C@]2(C(C)C)OC1(C)[C@@H]1CC[C@@H](C)[C@H]1[C@@H]2OC(=O)/C=C/c1ccccc1` [Compound 43] showed an IC50 of 500 to 5000 nM.
`C#CCCCC(=O)O[C@@H]1C[C@]2(C(C)C)OC1(C)[C@@H]1CC[C@@H](C)[C@H]1[C@@H]2OC(=O)/C=C/c1ccccc1` [Compound 45] showed an IC50 of 500 to 5000 nM.
`CC(C)[C@@]12C[C@@H](OC(=O)CO)C(C)(O1)[C@@H]1CC[C@@H](C)[C@H]1[C@@H]2OC(=O)c1ccc(C2(C(F)(F)F)N=N2)cc1` [Compound 41] showed an IC50 of 30 to 100 nM.
Compound `CC(C)[C@@]12C[C@@H](OC(=O)CO)C(C)(O1)[C@@H]1CC[C@@H](C)[C@H]1[C@@H]2OC(=O)C1CCc2ccccc2C1` (stereo partly drawn) [Compound 37] has an IC50 of 30 to 100 nM.
`C#CCCCC(=O)OCC(=O)O[C@@H]1C[C@]2(C(C)C)OC1(C)[C@@H]1CC[C@@H](C)[C@H]1[C@@H]2OC(=O)/C=C/c1ccccc1` [Compound 44] was tested, and the IC50 was 100 to 500 nM.
In the case of `C#CC[C@@H](O)C(=O)O[C@@H]1CC2(C(C)C)O[C@@]1(C)[C@@H]1CC[C@@H](C)[C@H]1C2OC(=O)c1ccc(C2(C(F)(F)F)N=N2)cc1` (stereo partly drawn) [Compound 58], the IC50 is reported as 500 to 5000 nM.
With `CC(C)C12C[C@@H](OC(=O)CO)[C@@](C)(O1)[C@@H]1CC[C@@H](C)[C@H]1[C@@H]2OC(=O)c1ccc2ccccc2c1` [Compound 16] the IC50 was < 30 nM.
`C#CC[C@@H](O)C(=O)O[C@@H]1CC2(C(C)C)O[C@@]1(C)[C@@H]1CC[C@@H](C)[C@H]1C2OC(=O)c1ccc2ccccc2c1` (stereo partly drawn) [Compound 57] showed an IC50 of 500 to 5000 nM.
For `Cc1c(C(=O)O[C@H]2[C@@H]3[C@H](C)CC[C@H]3C3(C)O[C@@]2(C(C)C)C[C@H]3OC(=O)CO)ccc2ccccc12` [Compound 39], the IC50 was < 30 nM.
`CC(C)C12C[C@@H](OC(=O)CO)[C@@](C)(O1)[C@@H]1CC[C@@H](C)[C@H]1[C@@H]2OC(=O)/C=C/C1CCCCC1` [Compound 15] was tested, and the IC50 was < 30 nM.
For `C[C@@H]1CC[C@@H]2[C@@H]1[C@H](OC(=O)/C=C/c1ccccc1)[C@]1(C)C[C@@H](OC(=O)CO)[C@@]2(C)O1` [Compound 14], the IC50 was 500 to 5000 nM.
`C#CCOCC(=O)O[C@@H]1C[C@]2(C(C)C)OC1(C)[C@@H]1CC[C@@H](C)[C@H]1[C@@H]2OC(=O)/C=C/c1ccccc1` [Compound 46] showed an IC50 of 500 to 5000 nM.
`CC(C)C12C[C@@H](OC(=O)[C@H](C)O)[C@@](C)(O1)[C@@H]1CC[C@@H](C)[C@H]1C2OC(=O)/C=C/c1ccccc1` (stereo partly drawn) [Compound 52] was tested, and the IC50 was 500 to 5000 nM.
Work on `CC(C)C12C[C@@H](OC(=O)CO)[C@@](C)(O1)[C@@H]1CC[C@@H](C)[C@H]1[C@@H]2OC(=O)/C=C/c1ccc(F)cc1` [Compound 18] yielded an IC50 of 500 to 5000 nM.
`Cc1c(C(=O)O[C@H]2[C@@H]3[C@H](C)CC[C@H]3C3(C)O[C@@]2(C(C)C)C[C@H]3OC(=O)CO)ccc2c1CCCC2` [Compound 40] was tested, and the IC50 was < 30 nM.
`CC(C)C12C[C@@H](OC(=O)[C@H](C)O)[C@@](C)(O1)[C@@H]1CC[C@@H](C)[C@H]1C2OC(=O)c1ccc2ccccc2c1` (stereo partly drawn) [Compound 54] was tested, and the IC50 was 100 to 500 nM.
`CCC12C[C@@H](OC(=O)CO)[C@@](C)(O1)[C@@H]1CC[C@@H](C)[C@H]1[C@@H]2OC(=O)/C=C/c1ccccc1` [Compound 13] showed an IC50 of 500 to 5000 nM.
